# Like-named read-outs stand apart in the source and are kept apart here.
# Columns and labels:
# [1] = system: IL-8 production in U937 cells infected with influenza A virus A/PuertoRico/8/1934; experiment: IL-8 production in influenza-infected U937 cells (AlphaLISA); type: cell-based, human; settings: read-out: EC50 IL-8
# [2] = system: IP-10 production in U937 cells infected with influenza A virus A/PuertoRico/8/1934; experiment: cells; type: cell-based
# [3] = system: MCP-1 production in U937 cells infected with influenza A virus A/PuertoRico/8/1934; experiment: MCP-1 production in influenza-infected U937 cells (AlphaLISA); type: cell-based, human; settings: read-out: EC50 MCP-1
# in vitro = settings: human
# [4] = system: influenza A virus (A/PR/8/34); experiment: Mouse lethal influenza model: survival and body weight; type: in vivo, BALB/c mice; settings: for Body weight loss: started 2 h after infection; for Survival rate: started 2 h after infection with 500 TCID50, monitored to day 20
# [5] = system: influenza A virus (A/PR/8/34); experiment: Inflammatory cell infiltration in lungs/BALF of infected mice (histology, flow cytometry); type: in vivo, BALB/c mice; settings: 15 mg/kg oral from day 3
# Method: BALF samples were washed with FACS buffer (10% BSA in PBS). Red blood cells were lysed using ammonium chloride and […] were seeded into a 96-well U-bottom plate. Cells were pre-incubated with anti-FcgRIII/II (Fc block) in FACS buffer before a 30-min incubation with the following fluorochrome-labeled antibodies (Biolegend): PE-Cy7-conjugated Ly6C (clone HK1.4, dilution 1:200), PE-conjugated CD11b (clone M1/70, dilution 1:200), APC-conjugated Ly6G (clone 1A8, dilution 1:200), and FITC-conjugated CD11c (clone N418, dilution 1:100). Cells were washed with phosphate-buffered saline twice and counterstained with 7AAD (Biolegend) to differentiate apoptotic and dead cells and then analyzed using a LSR Fortessa (Becton Dickinson).
# Whole lungs were perfused with 10% neutral buffered formaldehyde in situ. Tissues were then fixed overnight in 10% neutral buffered formaldehyde, embedded in paraffin, and sectioned. Lung specimens were stained with hematoxylin and eosin and then subjected to gross and microscopic pathologic analysis.
# Mice were infected as described in Figure 2. […] (A) Hematoxylin & eosin-stained mouse lung sections (scale bar 200 μm) harvested at day 7 post-infection. (B) BALFs were collected from placebo and ponatinib-treated mice (n = 3 per group at each time point) starting day 3 post-infection to monitor total cell counts (mean ± SEM) on days 5 and 7 post-infection. The data are representative of at least three independent experiments.*p < 0.05; **p < 0.01.
# [6] = system: pro-inflammatory cytokines in BALF; design: species or system BALB/c mice; settings: mouse, in vivo
# [7] = system: influenza A virus (A/PR/8/34); experiment: Viral titers in BALF of infected mice (TCID50 assay using MDCK cells); type: in vivo, BALB/c mice
# [8] = system: PR8 strain of influenza virus; experiment: In vitro antiviral assays in U937, A549 cells and murine PCLS; type: cell-based
# [9] = system: MCP-1, KC, IP-10 and IL-6 production in PCLS infected with influenza; experiment: Cytokine production in influenza-infected murine precision-cut lung slices (PCLS); type: cell-based, mouse
# phospho-p38 = type: cell-based, human
# IFN-α = IFN-α levels in influenza virus-infected U937 cells; type: cell-based, human
# [10] = cited from earlier work
# [11] = U937 cells, PR8 MOI = 0.1, 48 h
# [12] = Homo sapiens, U-937, PR8 MOI = 0.1, 48 h
structure (smiles),measurement,setting,value
Nc1cccc(-c2cc3c(Oc4cccc(O)c4)ncnc3[nH]2)c1 [TWS119],EC50,[1]; [11],9 µM
same,EC50,"[2]; PR8 MOI = 0.1, 48 h",8.5 µM
same,EC50,[3]; [11],8 µM
same,CC50,U937 cells,5.4 µM
CNC(=O)c1cc(Oc2ccc(NC(=O)Nc3ccc(Cl)c(C(F)(F)F)c3)cc2)ccn1 [Sorafenib],EC50,"[1]; Homo sapiens, U-937, 48 h",0.7 µM
same,EC50,[2]; [12],3.7 µM
same,EC50,"[3]; Homo sapiens, U-937, 48 h",5.8 µM
same,CC50,in vitro,20.7 µM
CC(C)(C)n1nc(-c2ccc(Cl)cc2)c2c(N)ncnc21 [PP2],EC50,[1]; [11],> 100 µM
same,EC50,"[2]; PR8 MOI = 0.1, 48 h",3.3 µM
same,EC50,[3]; [11],10.4 µM
same,CC50,U937 cells,40.3 µM
Cc1cn(-c2cc(NC(=O)c3ccc(C)c(Nc4nccc(-c5cccnc5)n4)c3)cc(C(F)(F)F)c2)cn1 [Nilotinib],EC50,"[1]; Homo sapiens, U-937, 48 h",0.4 µM
same,EC50,[2]; [12],1.1 µM
same,EC50,"[3]; Homo sapiens, U-937, 48 h",1.5 µM
same,CC50,in vitro,5.4 µM
Cc1ccc2nc(NCCN)c3ncc(C)n3c2c1 [BMS-345541],EC50,"[1]; Homo sapiens, U-937, 48 h",11.7 µM
same,EC50,[2]; [12],4.6 µM
same,EC50,"[3]; Homo sapiens, U-937, 48 h",3.6 µM
same,CC50,in vitro,3.9 µM
Cc1ccc(C(=O)Nc2ccc(CN3CCN(C)CC3)c(C(F)(F)F)c2)cc1C#Cc1cnc2cccnn12 [Ponatinib],EC50,"[1]; Homo sapiens, U-937, 48 h",0.3 µM
same,EC50,"[3]; Homo sapiens, U-937, 48 h",0.4 µM
same,Body weight loss,[4]; 5 mg/kg/d oral,improvement in body weight loss decreased significantly compared to the middle dose group
same,Survival rate,[4]; 5 mg/kg/d oral,20%
same,"Body weight loss, delayed administration","[4]; 15 mg/kg oral, started on days 1, 2, 3 or 4 post-infection until day 6",slowed down significantly
same,"Survival rate, delayed administration","[4]; 15 mg/kg oral, started on days 3 and 4 post-infection until day 6",higher survival rates than those treated starting on days 1 and 2
same,Survival rate,[4]; 15 mg/kg/d oral,50%
same,Body weight loss,"[4]; 15 mg/kg/d oral, days 3 to 5",least decline in body weight
same,Body weight loss,[4]; 25 mg/kg/d oral,improvement of body weight loss was not observed at all
same,Survival rate,[4]; 25 mg/kg/d oral,30%
same,Inflammatory infiltrates in the lungs (histology),"[5]; day 7 post-infection, vs placebo",fewer inflammatory infiltrates
same,Infiltration of neutrophils in BALF,[5]; days 5 and 7 post-infection,greatly reduced
same,Monocyte infiltration in BALF,[5]; days 5 and 7 post-infection,not affected
same,"Concentrations of IL-6, IL-10, MCP-1, Eotaxin, IL-12 (p40) and MIP-1β in BALF",[6],not affected
same,Expression levels of cytokines and chemokines in BALF (of 17 increased by infection),[6],14 cytokines and chemokines were attenuated
same,IFN-α levels in BALF vs placebo,[6],higher on day 3 and lower on day 5 post-infection
same,"Inhibition of cytokines in BALF except IL-6 and CCL-5, late phase",[6],minor
same,"Inhibition of cytokines in BALF, early phase",[6],no cytokines were inhibited
same,"Levels of Eotaxin, G-CSF, MCP-1, IL-10, TNF-α and IP-10 in BALF",[6],elevated
same,Levels of type I IFNs in BALF and serum,[6],reduce the levels of type I IFNs
same,Production of cytokines and chemokines in BALF,[6],8 cytokines and chemokines was reduced
same,Viral titers in BALF vs placebo,[7]; 15 mg/kg oral from day 0 (simultaneously with infection),significantly higher at day 3 and slightly higher at day 7
same,Virus titers in BALF vs placebo,"[7]; 15 mg/kg oral from day 3, days 5 and 7 post-infection",no difference
same,Replication of PR8 influenza virus in vitro,[8],did not inhibit the replication
same,"MCP-1, KC, IP-10 and IL-6 productions in infected PCLS",[9],dose-dependently
same,Phosphorylation of p38,phospho-p38,downregulated
same,Levels of IFN-α,IFN-α,downregulate
same,Median time to first onset of pancreatitis,[10]; clinical trials,14 days
same,Median time to initial onset of arterial occlusive events,"[10]; patients, long-term treatment",13.4 months

# Reference: article PMC6598400 (Frontiers in Immunology, 2019)
